Experimental data taken from US10052289B2, “Composition comprising an active agent with low aqueous solubility” (Flamel Ireland Limited, priority 2008, dated 2018).
Converted amounts (≈) assume the structure as drawn. “And” between values parts separate entries of the source, which are not always exact repeats. Equal entries are not always repeated. Where two headings read alike, the source gives them in different places.

What was measured:
[1] = pH 7.0, ambient temperature
physchem [2] = conditions: concentrated aqueous POM polymer solution, pH 7, aqueous with cosolvent or surfactant or cyclodextrin, thermodynamic from solid, Total concentration of solubilized active ingredient, ambient temperature
physchem [3] = conditions: pH 7, aqueous buffer, thermodynamic from solid, solubility in the absence of polymer
Experimental: 40 to 50 mg of carvedilol base are introduced into a 15 ml Falcon tube. 5 ml of aqueous solution of concentrated POM polymer at 20 mg/ml and at pH 7.0 are added. […] After this stage, the preparation is centrifuged at 9,000 rpm for 30 minutes in order to eliminate any undissolved crystals. […] It is diluted 1,000 times with a phosphate buffer at pH 7.0. The concentration of solubilized carvedilol is determined by UV spectrometry (at a wavelength of 240 nm and using a cell with a 1 cm optical path).

physchem [4] = conditions: for solubility at […]: 37 °C, pH 7, aqueous buffer, thermodynamic from solid
Experimental: 0.49 mg of paclitaxel (Bioxel) is introduced into a 2 liter volumetric flask. The flask is topped up to the fill line with a 0.05 M phosphate buffer at pH 7.0. The preparation is stirred using a magnetic bar, at 37° C.
The preparation is then placed in an ultrasonic bath for 60 min at ambient temperature.

[5] = Solubilization of paclitaxel in aqueous POM polymer solution at 20 mg/ml (visual check); assay type: physicochemical; conditions: for Solubilized active ingredient in μmol per g of polymer / Total concentration of active ingredient solibilized for 20 g/l of polymer: 20 g/l, pH 7.0, ambient temperature
Experimental: 4.99 mg of paclitaxel (Bioxel) are introduced into a pill-box.
10.33 mg of paclitaxel (Bioxel) are introduced into a pill-box.
7 mg of paclitaxel (Bioxel) are introduced into a pill-box.

[6] = Solubilization of paclitaxel in concentrated aqueous POM polymer solution (visual check); assay type: physicochemical; conditions: for solubility: concentrated aqueous POM polymer solution
Experimental: 21.21 mg of paclitaxel (Bioxel) are introduced into a pill-box.
39.68 mg of paclitaxel (Bioxel) are introduced into a pill-box.
35.05 mg of paclitaxel (Bioxel) are introduced into a pill-box.

[7] = background statement; cited from earlier work
[8] = Solubilization of ketoconazole in concentrated POM polymer solution (visual check); assay type: physicochemical; conditions: for solubility: pH 7, aqueous with cosolvent or surfactant or cyclodextrin, thermodynamic from solid
[9] = remark: listed apart in the source
Experimental: The preparation is centrifuged at 9,000 rpm for 30 minutes.

physchem [10] = conditions: thermodynamic from solid
[11] = sodium polyglutamate DP=100, 10% VE, 52.8 mg/ml
[12] = sodium polyglutamate DP=100, 15% VE, 84.6 mg/ml
[13] = sodium polyglutamate DP=100, 20% VE, 156 mg/ml
[14] = sodium polyglutamate DP=100, 5% VE
[15] = sodium polyglutamate DP=100, 10% VE
[16] = sodium polyglutamate DP=100, 15% VE
[17] = sodium polyglutamate DP=100, 20% VE
[18] = sodium polyglutamate DP=100, 10% VE, 52.8 mg/ml, pH 7.0, ambient temperature
[19] = sodium polyglutamate DP=100, 15% VE, 84.6 mg/ml, pH 7.0, ambient temperature
[20] = sodium polyglutamate DP=100, 20% VE, 156 mg/ml, pH 7.0, ambient temperature
[21] = sodium polyglutamate DP=100, 30% VE, 53.5 mg/ml, pH 7.0, ambient temperature

COc1ccccc1OCCNCC(O)COc1cccc2[nH]c3ccccc3c12 (centres unmarked) [carvedilol base, carvedilol]
Solubilized active ingredient in μmol per g of polymer (pH 7): 28 μmol per g of polymer | Total concentration of solubilized active ingredient for 20 g/l of polymer (pH 7): 0.000565 mol/L | Solubilized active ingredient in μmol per g of polymer [1, 11]: 638 μmol per g of polymer | Solubilized active ingredient in μmol per g of polymer [1, 12]: 474 μmol per g of polymer | Solubilized active ingredient in μmol per g of polymer [1, 13]: 543 μmol per g of polymer | solubility (physchem [2]; [11]): 33.7 mM (≈ 13700 µg/mL) | solubility (physchem [2]; [12]): 40.1 mM (≈ 16300 µg/mL) | solubility (physchem [2]; [13]): 84.6 mM (≈ 34400 µg/mL) | solubility at 90 min (physchem [3]): 0.12 mM (≈ 48.8 µg/mL)

CC(=O)O[C@H]1C(=O)[C@@]2(C)[C@H]([C@H](OC(=O)c3ccccc3)[C@]3(O)C[C@H](OC(=O)[C@H](O)[C@@H](NC(=O)c4ccccc4)c4ccccc4)C(C)=C1C3(C)C)[C@]1(OC(C)=O)CO[C@@H]1C[C@@H]2O [paclitaxel]
appearance after ultrasonic treatment (physchem [4]; 0.49 mg paclitaxel in 2 liter 0.05 M phosphate buffer pH 7.0, after stirring, ultrasonic bath 60 min at ambient temperature): A few grains of powder are still undissolved | appearance after magnetic stirring (physchem [4]; 0.49 mg paclitaxel in 2 liter 0.05 M phosphate buffer pH 7.0, magnetic stirring […] at 37° C.): a few grains of undissolved powder remain | solubility at […] (physchem [4]; solubility in an aqueous buffer): < 0.25 µg/mL and < 0.3 µM | solubility at […] (physchem [4]; solubility of the active ingredient measured without polymer): 0.0003 mM (≈ 0.256 µg/mL) | μmol of paclitaxel per gram of POM polymer ([5]; 20 mg/ml polyglutamate DP=100, 20% VE): 47 μmol per gram of POM polymer | solubility at […] ([5]; aqueous polyglutamate (POM) polymer solution, pH 7, aqueous with cosolvent or surfactant or cyclodextrin, thermodynamic from solid, 20 mg/ml polyglutamate DP=100, 20% VE): ~800 µg/mL (≈ 937 µM) | Solubilized active ingredient in μmol per g of polymer [5, 14]: 12 μmol per g of polymer | Total concentration of active ingredient solibilized for 20 g/l of polymer [5, 14]: 0.00023 mol/L | Solubilized active ingredient in μmol per g of polymer [5, 15]: 29 μmol per g of polymer | Total concentration of active ingredient solibilized for 20 g/l of polymer [5, 15]: 0.00059 mol/L | Solubilized active ingredient in μmol per g of polymer [5, 16]: 47 μmol per g of polymer | Total concentration of active ingredient solibilized for 20 g/l of polymer [5, 16]: 0.00094 mol/L | Solubilized active ingredient in μmol per g of polymer [5, 17]: 47 μmol per g of polymer | Total concentration of active ingredient solibilized for 20 g/l of polymer [5, 17]: 0.00094 mol/L | μmol of paclitaxel per gram of POM polymer ([6]; 90 mg/ml polyglutamate 20% VE): 49 μmol per gram of POM polymer | solubility at 5 h ([6]; aqueous polyglutamate (POM) polymer solution, pH 7, aqueous with cosolvent or surfactant or cyclodextrin, thermodynamic from solid, 90 mg/ml polyglutamate 20% VE): 3500 to 4000 µg/mL (≈ 4100 to 4680 µM) | solubility ([6]; pH 7, aqueous with cosolvent or surfactant or cyclodextrin, thermodynamic from solid, concentrated polymers DP=100 containing between 15% and 20% vitamin E, read-out: concentrations of solubilized active ingredient): > 3 mM | solubility ([6]; pH 7, aqueous with cosolvent or surfactant or cyclodextrin, thermodynamic from solid, sodium polyglutamate DP=100, 10% VE, 52.8 mg/ml, pH 7.0, ambient temperature, read-out: Total concentration of solubilized active ingredient): 1.5 mM (≈ 1280 µg/mL) | solubility ([6]; pH 7, aqueous with cosolvent or surfactant or cyclodextrin, thermodynamic from solid, sodium polyglutamate DP=100, 15% VE, 84.6 mg/ml, pH 7.0, ambient temperature, read-out: Total concentration of solubilized active ingredient): 3.5 mM (≈ 2990 µg/mL) | solubility ([6]; pH 7, aqueous with cosolvent or surfactant or cyclodextrin, thermodynamic from solid, sodium polyglutamate DP=100, 20% VE, 156 mg/ml, pH 7.0, ambient temperature, read-out: Total concentration of solubilized active ingredient): 6.4 mM (≈ 5470 µg/mL) | solubility ([6]; pH 7, aqueous with cosolvent or surfactant or cyclodextrin, thermodynamic from solid, sodium polyglutamate DP=100, 30% VE, 53.5 mg/ml, pH 7.0, ambient temperature, read-out: Total concentration of solubilized active ingredient): < 1.4 mM | Solubilized active ingredient in μmol per g of polymer [6, 18]: 29 μmol per g of polymer | Solubilized active ingredient in μmol per g of polymer [6, 19]: 42 μmol per g of polymer | Solubilized active ingredient in μmol per g of polymer [6, 20]: 41 μmol per g of polymer | Solubilized active ingredient in μmol per g of polymer [6, 21]: <26 μmol per g of polymer | aqueous solubility [7]: less than 1 μg/ml

CC(=O)N1CCN(c2ccc(OCC3COC(Cn4ccnc4)(c4ccc(Cl)cc4Cl)O3)cc2)CC1 (centres unmarked) [ketoconazole]
Solubilized active ingredient in μmol per g of polymer (sodium polyglutamate DP=100, 2% VE, 20 g/l, pH 7.0, ambient temperature): 28 μmol per g of polymer | Solubilized active ingredient in μmol per g of polymer (sodium polyglutamate DP=100, 5% VE, 20 g/l, pH 7.0, ambient temperature): 127 μmol per g of polymer | Solubilized active ingredient in μmol per g of polymer (sodium polyglutamate DP=100, 10% VE, 20 g/l, pH 7.0, ambient temperature): 358 μmol per g of polymer | Solubilized active ingredient in μmol per g of polymer (sodium polyglutamate DP=100, 15% VE, 20 g/l, pH 7.0, ambient temperature): 358 μmol per g of polymer | Solubilized active ingredient in μmol per g of polymer (sodium polyglutamate DP=100, 20% VE, 20 g/l, pH 7.0, ambient temperature): 348 μmol per g of polymer | solubility ([8]; concentrated aqueous POM polymer solution, concentrated polymers DP=100 containing between 15% and 20% vitamin E, read-out: concentrations of solubilized active ingredient): > 30 mM | solubility ([8]; concentrated aqueous POM polymer solution, sodium polyglutamate DP=100, 15% VE, 84.6 mg/ml, pH 7.0, ambient temperature, read-out: Total concentration of solubilized active ingredient): 31.1 mM (≈ 16500 µg/mL) | solubility ([8]; sodium polyglutamate DP=100, 10% VE, 52.8 mg/ml, pH 7.0, ambient temperature, read-out: Total concentration of solubilized active ingredient): 16 mM (≈ 8500 µg/mL) | solubility ([8]; sodium polyglutamate DP=100, 20% VE, 156 mg/ml, pH 7.0, ambient temperature, read-out: Total concentration of solubilized active ingredient): 53.5 mM (≈ 28400 µg/mL) | solubility ([8]; sodium polyglutamate DP=100, 30% VE, 53.5 mg/ml, pH 7.0, ambient temperature, read-out: Total concentration of solubilized active ingredient): 14.1 mM (≈ 7490 µg/mL) | Solubilized active ingredient in μmol per g of polymer [8, 18]: 303 μmol per g of polymer | Solubilized active ingredient in μmol per g of polymer [8, 19]: 367 μmol per g of polymer | Solubilized active ingredient in μmol per g of polymer [8, 20]: 343 μmol per g of polymer | Solubilized active ingredient in μmol per g of polymer [8, 21]: 264 μmol per g of polymer | factor of increase of solubility [9]: approximately 200 | solubility (physchem [10]; aqueous POM polymer solution, pH 7, aqueous with cosolvent or surfactant or cyclodextrin, Total concentration of solubilized active ingredient for 20 g/l of polymer, sodium polyglutamate DP=100, 2% VE, 20 g/l, pH 7.0, ambient temperature): 0.565 mM (≈ 300 µg/mL) | solubility (physchem [10]; aqueous POM polymer solution, pH 7, aqueous with cosolvent or surfactant or cyclodextrin, Total concentration of solubilized active ingredient for 20 g/l of polymer, sodium polyglutamate DP=100, 5% VE, 20 g/l, pH 7.0, ambient temperature): 2.54 mM (≈ 1350 µg/mL) | solubility (physchem [10]; aqueous POM polymer solution, pH 7, aqueous with cosolvent or surfactant or cyclodextrin, Total concentration of solubilized active ingredient for 20 g/l of polymer, sodium polyglutamate DP=100, 10% VE, 20 g/l, pH 7.0, ambient temperature): 7.16 mM (≈ 3810 µg/mL) | solubility (physchem [10]; aqueous POM polymer solution, pH 7, aqueous with cosolvent or surfactant or cyclodextrin, Total concentration of solubilized active ingredient for 20 g/l of polymer, sodium polyglutamate DP=100, 15% VE, 20 g/l, pH 7.0, ambient temperature): 7.16 mM (≈ 3810 µg/mL) | solubility (physchem [10]; aqueous POM polymer solution, pH 7, aqueous with cosolvent or surfactant or cyclodextrin, Total concentration of solubilized active ingredient for 20 g/l of polymer, sodium polyglutamate DP=100, 20% VE, 20 g/l, pH 7.0, ambient temperature): 6.97 mM (≈ 3700 µg/mL) | solubility (physchem [10]; aqueous medium without polymer, pH 7, aqueous buffer, solubility in the absence of polymer, pH 7.0, absence of polymer): ~0.02 mM (≈ 10.6 µg/mL)
